The test system of this experiment is 997537-175-T-J1-PDC complex spheroid viability. Description: Anticancer human tumor 997537-175-T-J1-PDC patient-derived colon adenocarcinoma cell line growth inhibition [GQUAD]. Conditions: for viability, T/C: stronger effect = lower value. The source says: DNA G-quadruplex Stabilizer Agents in Combinations in Complex Spheroids
A high-throughput screen of multi-cell type tumor spheroids was designed to identify active combinations of DNA G-quadruplex stabilizer agents and targeted small molecules. Complex spheroids include a stromal component modeled by human endothelial cells (HUVEC) and fibroblasts modeled by human mesenchymal stem cells (MSCs). The concentration ranges selected for each drug and investigational agent were based upon clinically achievable concentrations if the clinical Cmax of the agent was known.
Compounds. The drugs and investigational agents: pidnarulex (CX-5461; NSC782164), APTO-253 (NSC789042), BRACO-19 (NSC847499), peposertib (NSC802822), ceralasertib (NSC780249), elimusertib (NSC800525), camonsertib (NSC841442), AZD-1390 (NSC803789), olaparib (NSC753686), talazoparib (NSC767125), ART-558 (NSC835418), sotorasib (NSC818433), MRTX-1133 (NSC836407), SN-38 (NSC673596), topotecan (NSC609699), etoposide (NSC141540), doxorubicin (NSC123127), gemcitabine (NSC613327), 5-fluorouracil (NSC19893), paclitaxel (NSC125973), vemurafenib (NSC761431), panobinostat (NSC761190), R-306465 (JNJ-16241199; NSC773264), adavosertib (NSC754352), TP-3654 (NSC805149), carboplatin (NSC241240), KSQ-4279 (NSC840948), and staurosporine (NSC755774) were obtained from the National Cancer Institute (NCI) Developmental Therapeutics Program Chemical Repository (34). The FDA-approved anticancer drug set is available from the NCI Developmental Therapeutics Program. […] The stock solutions were prepared in dimethyl sulfoxide (DMSO, Sigma-Aldrich, St. Louis, MO, cat. D2650) at 800-fold the tested concentration and stored at -70 degrees C prior to their use. All drugs and investigational agents were tested over a range starting from a high concentration at or near the clinical Cmax and decreasing in half-log increments. If the clinical Cmax for an agent had not been determined, the highest concentration tested was 10 microM.
2.3 Cell Culture. All cells were maintained in an incubator at 37 degrees C and 5% CO2 with 95% humidity. The PDC lines were cultured according to standard operating procedures established by the NCI PDMR. All PDCs were thawed and cultured in Matrigel-coated flasks prepared with a working solution of 1X Ham's F-12 nutrient mix, without supplementation (Invitrogen, cat. 11765054), 100 U/mL penicillin-streptomycin (Invitrogen, cat. 15140122), and 2.5% Matrigel (Corning Inc., cat. 354248) for the first three passages. The 857933-349-R-J2-PDC line was cultured in 6C/Colon 1B media, which includes advanced DMEM/F-12 (Thermo Fisher Scientific, cat. 12634028), 10 mM HEPES (Thermo Fisher Scientific, cat. 15630080), 1X GlutaMAX supplement (Thermo Fisher Scientific, cat. 35050061), 0.1 mg/mL primocin (InvivoGen, cat. ant-pm-2), 10% defined fetal bovine serum, heat inactivated (HyClone Laboratories Inc., cat. SH30070.03HI), 50% L-WRN conditioned media (ATCC, cat. CRL-3276), 1.25 mM N-Acetyl-L-cysteine (Sigma-Aldrich, cat. A9165), 10 mM nicotinamide (Sigma-Aldrich, cat. N0636), 1X B-27 supplement (Thermo Fisher Scientific, cat. 17504044), 1X N-2 supplement (Thermo Fisher Scientific, cat. 17502048), 10 microM Y-27632 dihydrochloride (Tocris Bioscience, cat. 1254), and 50 ng/mL human EGF recombinant protein (Thermo Fisher Scientific, cat. PHG0311). The 485176-168-R4-J1-PDC line was cultured in Panc media, which includes all 6C/Colon 1B media components plus 100 ng/mL human FGF-10 (Thermo Fisher Scientific, cat. 100-26), 500 nM SB-431542 (Selleckchem, cat. S1067), and gastrin (Tocris, cat. 3006).
[…]

Where [1] appears, read: curve of first compound, second compound 0.0316 µM.
Where [2] appears, read: curve of first compound, second compound 0.1 µM.
Setting [3] is: curve of first compound, second compound 0.316 µM.
[4] abbreviates: curve of first compound, second compound 1 µM.
[5] abbreviates: curve of first compound, second compound 3.16 µM.
[6] abbreviates: curve of first compound, second compound 10 µM.
Setting [7] is: second compound 0.0316 µM, first compound 0.0316 µM.
[8] abbreviates: second compound 0.0316 µM, first compound 0.1 µM.
Where [9] appears, read: second compound 0.0316 µM, first compound 0.316 µM.
The mark [10] stands for this setting: second compound 0.0316 µM, first compound 1 µM.
Where [11] appears, read: second compound 0.0316 µM, first compound 3.16 µM.
[12] abbreviates: second compound 0.0316 µM, first compound 10 µM.
Setting [13] is: second compound 0.1 µM, first compound 0.0316 µM.
Where [14] appears, read: second compound 0.1 µM, first compound 0.1 µM.
The mark [15] stands for this setting: second compound 0.1 µM, first compound 0.316 µM.
Where [16] appears, read: second compound 0.1 µM, first compound 1 µM.
Where [17] appears, read: second compound 0.1 µM, first compound 3.16 µM.
The mark [18] stands for this setting: second compound 0.1 µM, first compound 10 µM.
Where [19] appears, read: second compound 0.316 µM, first compound 0.0316 µM.
Where [20] appears, read: second compound 0.316 µM, first compound 0.1 µM.
Where [21] appears, read: second compound 0.316 µM, first compound 0.316 µM.
[22] abbreviates: second compound 0.316 µM, first compound 1 µM.
Setting [23] is: second compound 0.316 µM, first compound 3.16 µM.
The mark [24] stands for this setting: second compound 0.316 µM, first compound 10 µM.
[25] abbreviates: second compound 1 µM, first compound 0.0316 µM.
Where [26] appears, read: second compound 1 µM, first compound 0.1 µM.
[27] abbreviates: second compound 1 µM, first compound 0.316 µM.
[28] abbreviates: second compound 1 µM, first compound 1 µM.
The mark [29] stands for this setting: second compound 1 µM, first compound 3.16 µM.
[30] abbreviates: second compound 1 µM, first compound 10 µM.
The mark [31] stands for this setting: second compound 3.16 µM, first compound 0.0316 µM.
The mark [32] stands for this setting: second compound 3.16 µM, first compound 0.1 µM.
Setting [33] is: second compound 3.16 µM, first compound 0.316 µM.
Setting [34] is: second compound 3.16 µM, first compound 1 µM.
Setting [35] is: second compound 3.16 µM, first compound 3.16 µM.
Where [36] appears, read: second compound 3.16 µM, first compound 10 µM.
The mark [37] stands for this setting: second compound 10 µM, first compound 0.0316 µM.
[38] abbreviates: second compound 10 µM, first compound 0.1 µM.
Setting [39] is: second compound 10 µM, first compound 0.316 µM.
[40] abbreviates: second compound 10 µM, first compound 1 µM.
Where [41] appears, read: second compound 10 µM, first compound 3.16 µM.
[42] abbreviates: second compound 10 µM, first compound 10 µM.

Several values for one entry are separate records, joined by “and”; a condition that tells them apart may be missing. Equal values may be shown once.

Consider six compounds from PubChem BioAssay AID2060487 (Molecular Pharmacology Branch, DTP, NCI, 2025).
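Also: spheroids exposed to the agents for 7 days.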

Take `O=c1[nH]cc(F)c(=O)[nH]1`: the viability, T/C (compound 0.0316 µM) was 108% and 85.2% and 99.8%; the viability, T/C (compound 0.1 µM) is 104% and 108% and 86.2%; the viability, T/C (compound 0.316 µM) is 96.1% and 89% and 98.1%; the viability, T/C (compound 1 µM) was 95.1% and 85.5% and 92.2%; the viability, T/C (compound 3.16 µM) is 101% and 70.3% and 82.5%; the viability, T/C (compound 10 µM) is 83.9% and 87.2% and 93.6%. Also, the IC50 (curve of compound) was greater than 10000 nM.
As to `O=C(c1cc(Cc2n[nH]c(=O)c3ccccc23)ccc1F)N1CCN(C(=O)C2CC2)CC1`, the viability, T/C by setting is: (compound 0.0316 µM) 106% and 94.3% and 90.2%; (compound 0.1 µM) 88% and 96.7% and 102%; (compound 0.316 µM) 94.6% and 102% and 107%; (compound 1 µM) 104% and 92.4% and 103%; (compound 3.16 µM) 102% and 64.4% and 79.6%; (compound 10 µM) 85.2% and 87.2% and 96.7%. Where the note is “curve of compound”, the IC50 was greater than 10000 nM.
As to `CC[C@@]1(O)C(=O)OCc2c1cc1n(c2=O)Cc2cc3c(CN(C)C)c(O)ccc3nc2-1`, the viability, T/C by setting is: (compound 0.000999 µM) 111% (2×) and 97.1%; (compound 0.00316 µM) 69.8% and 102% and 104%; (compound 0.00999 µM) 90.1% and 96.7% and 105%; (compound 0.0316 µM) 80.1% and 87.1% and 83.8%; (compound 0.0999 µM) 71.2% and 79.7% and 72.6%; (compound 0.316 µM) 44.4% and 62.8% and 50.7%. Moreover, for the setting “curve of compound”, the IC50 is 276 nM and > 316 nM.
Turning to `CCc1c2c(nc3ccc(O)cc13)-c1cc3c(c(=O)n1C2)COC(=O)[C@]3(O)CC`, the viability, T/C was 83.3% and 102% and 95.3% (compound 0.000999 µM); 63.9% and 92% and 82.8% (compound 0.00316 µM); 52.7% and 68.5% and 49% (compound 0.00999 µM); 34.5% and 31.5% and 19.4% (compound 0.0316 µM); 6.34% and 5.01% and 4.92% (compound 0.0999 µM); 2.98% and 3.42% and 6.93% (compound 0.316 µM). Besides, the IC50 (curve of compound) was 10.5 nM and 17.4 nM and 9.78 nM.
Turning to `O=C(c1cc(Cc2n[nH]c(=O)c3ccccc23)ccc1F)N1CCN(C(=O)C2CC2)CC1` + Cc1[nH]c2ccc(F)cc2c1-c1nc2c3cccnc3c3ncccc3c2[nH]1, the IC50 reads like this: under setting [1], greater than 10000 nM; under setting [2], greater than 10000 nM; under setting [3], greater than 10000 nM; under setting [4], greater than 10000 nM; under setting [5], greater than 10000 nM; under setting [6], greater than 10000 nM. Moreover, the viability, T/C is, setting by setting: under setting [7], 99.8%; under setting [8], 96.1%; under setting [9], 93.2%; under setting [10], 81.6%; under setting [11], 79%; under setting [12], 102%. Moreover, the viability, T/C under setting [13] is 91.8%; the viability, T/C under setting [14] is 95.7%; the viability, T/C under setting [15] is 77.1%; the viability, T/C under setting [16] is 67.8%; the viability, T/C under setting [17] is 89.5%; the viability, T/C under setting [18] is 94.1%. Also, the viability, T/C reads like this: under setting [19], 76.1%; under setting [20], 103%; under setting [21], 90%; under setting [22], 88.5%; under setting [23], 98.4%; under setting [24], 94.6%. Also, the viability, T/C is, setting by setting: under setting [25], 76.9%; under setting [26], 96.7%; under setting [27], 73.6%; under setting [28], 101%; under setting [29], 106%; under setting [30], 109%. Further, the viability, T/C is 90.7% under setting [31]; 89.9% under setting [32]; 100% under setting [33]; 81.4% under setting [34]; 94.4% under setting [35]; 94.4% under setting [36]. Also, the viability, T/C by setting is: under setting [37], 71.9%; under setting [38], 84.1%; under setting [39], 96.7%; under setting [40], 60.5%; under setting [41], 79.8%; under setting [42], 83.6%.
For `CCCS(=O)(=O)Nc1ccc(F)c(C(=O)c2c[nH]c3ncc(-c4ccc(Cl)cc4)cc23)c1F` + Cc1[nH]c2ccc(F)cc2c1-c1nc2c3cccnc3c3ncccc3c2[nH]1, the IC50 is, setting by setting: under setting [1], 5740 nM; under setting [2], 5600 nM; under setting [3], 8050 nM; under setting [4], 1920 nM; under setting [5], 2030 nM; under setting [6], 1470 nM. In addition, the viability, T/C is 88.8% under setting [7]; 107% under setting [8]; 97.9% under setting [9]; 70.1% under setting [10]; 71.5% under setting [11]; 34.4% under setting [12]. For the same compound, the viability, T/C under setting [13] is 101%; the viability, T/C under setting [14] was 105%; the viability, T/C under setting [15] was 90%; the viability, T/C under setting [16] was 94.1%; the viability, T/C under setting [17] was 71.6%; the viability, T/C under setting [18] is 27.5%. For the same compound, the viability, T/C was 102% under setting [19]; 101% under setting [20]; 97.1% under setting [21]; 69.2% under setting [22]; 83.5% under setting [23]; 41.8% under setting [24]. For the same compound, the viability, T/C reads like this: under setting [25], 98.2%; under setting [26], 97.4%; under setting [27], 101%; under setting [28], 73.4%; under setting [29], 33.1%; under setting [30], 30.7%. Besides, the viability, T/C reads like this: under setting [31], 86%; under setting [32], 81%; under setting [33], 88%; under setting [34], 72.8%; under setting [35], 35.4%; under setting [36], 16.5%. In addition, the viability, T/C reads like this: under setting [37], 72.4%; under setting [38], 82.5%; under setting [39], 71.8%; under setting [40], 63.3%; under setting [41], 17.7%; under setting [42], 28.9%.

One may read the viability, T/C as the result in the treated group divided by that in the control group, in per cent. Broadly, the IC50 is the concentration at which inhibition is half-maximal.
